# Assay results published in US7550613B2, “Compounds” (Pronova Biopharma Norge AS, priority 2005, dated 2009).
# Columns and labels:
# [1] = Analysis of intracellular free fatty acids in liver tissue (RP-HPLC MS/MS); type: in vivo, adipose prone mice of the C57BL/6J strain; conditions: FIG. 4; 1.5% of total fat content
# Protocol: In the first block of experiments (see FIG. 2) liver tissue from animals fed PRB-1,2,5, and 7 was analysed with respect to free unesterified fatty acids. The animals were recruited from the fifth block of experiments (pharmacodynamic effects of DHA derivatives in an animal model of metabolic syndrome). The animals had been given DHA ([…] of fat content of the diet) or the DHA-derivatives (1.5% of the fat content in their diet) for 8 weeks and were supposed to be in a steady-state situation with stable levels of DHA and the DHA-derivatives intracellularily. Liver tissue was chosen due to the fact that the metabolisation rate is very high in liver.
# The liver samples were homogenized in cold PBS buffer, and extracted immediately with chloroform:methanol (2:1) containing 0.2 mM butylated hydroxytoluene (BHT) using cis-10-heptadecenoic acid as internal standard. […] Total protein content was measured using Bio-Rad method after homogenization.
# Agilent 1100 system was used for reverse phase column (Supelco Ascentis C18 column, 25 cm×4.6 mm, i.d. 5 μm) separation of DHA and its PRB derivatives within 22 min. […] The column elute was identified and quantified in the negative electrospray ionisation applying multiple reaction monitoring mode by triple tandem quadrapole mass/mass (ABI Qtrap-4000). […] The quadratic regression standard curve was used for quantification after internal standard calibration. […]
# PPARγ = target: T1, PPARγ (Homo sapiens, UniProt P37231); assay: Affinity testing in transfected cells (release of luciferase); type: cell-based; conditions: FIG. 8; 10 μM of PRBs
# T1 construct: For full length PPAR transfection studies, each well received 5 μg reporter construct; expressed in transfected cells; host or cells: COS-1 cells
# T1 sequence (P37231 1-505): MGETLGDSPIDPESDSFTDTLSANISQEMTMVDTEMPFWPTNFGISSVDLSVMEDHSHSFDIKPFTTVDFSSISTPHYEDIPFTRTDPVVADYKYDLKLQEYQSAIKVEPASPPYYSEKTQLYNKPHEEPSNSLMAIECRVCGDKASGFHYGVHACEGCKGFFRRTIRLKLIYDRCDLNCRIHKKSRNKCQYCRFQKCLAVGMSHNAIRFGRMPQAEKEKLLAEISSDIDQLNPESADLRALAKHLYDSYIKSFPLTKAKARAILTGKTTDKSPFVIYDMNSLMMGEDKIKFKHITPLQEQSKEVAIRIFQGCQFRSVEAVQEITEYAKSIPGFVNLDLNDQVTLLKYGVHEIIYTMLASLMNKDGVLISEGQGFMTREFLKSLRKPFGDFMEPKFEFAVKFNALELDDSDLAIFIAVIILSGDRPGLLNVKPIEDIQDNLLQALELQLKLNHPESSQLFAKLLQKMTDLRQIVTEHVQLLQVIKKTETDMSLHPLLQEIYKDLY
# Protocol: Release of luciferase is correlated to transcription of genes. Binding of a ligand to a nuclear receptor such as PPARγ induces transcription of the respective gene thereby releasing luciferase. This technique therefore provides a measure of ligand affinity to the receptor as well as activation of the responsible gene.
# Transient transfection of COS-1 cells was performed in 6-well plates as described by Graham and van der Eb (Graham). For full length PPAR transfection studies, each well received 5 μg reporter construct, 2.5 μg pSV-β-galactosidase as an internal control, 0.4 μg pSG5-PPARγ2. The cells were harvested after 72 h, and the luciferase activity was measured according to the protocol (Promega). The luciferase activity was normalised against β-galactosidase activity. The adipocytes were transfected at D11 of differentiation using 16 μl LipofectaminPlus reagent, 4 μl Lipofectamine (Life Technologies Inc.), 0.2 μg pSG5-PPARγ, and 100 ng pTK Renilla luciferase as control of transfection afficiency. […] The luciferase activities were measured as recommended by the manufacturer (Dual Luciferase assay, Promega). […]
# Fatty acids (BRL or DHA) and PRBs (stock solutions) were solubilized to 0.1 M final concentration in DMSO. […] Luciferase activity was measured using a luminometer (TD-20/20 luminometer; Turner Designs, Sunnycvale, Calif.) and normalized against protein content.
# [2] = Effect of DHA derivatives on established metabolic syndrome and insulin resistance (Example 5b); type: in vivo, C57BL/6 mice
# Protocol: In another experiment, PRB-2, PRB-5, and PRB-7 were tested in the same breed of animals. In this experiment, animals were initially fed high fat diet (the same as in the previous experiment 5a) for 8 weeks developing insulin resistance and the metabolic syndrome, and then given the PRBs. […] After a period of another two weeks the animals were given 1.5% of PRB-2, 5% and 1.5% of PRB-5, and 1.5% and 0.5% of PRB-7.
# [3] = Histological analysis of tissue samples, liver fat (Example 5c); type: in vivo, C57BL/6 mice; conditions: eosin-hematoxylin; control animals fed high fat diet had fat liver
# Description: Tissue samples from animals in the experiments with DHA derivatives was histologically analysed. After paraffination, tissue samples from liver, adipose tissue, skeletal muscle, pancreas, and kidney were stained with eosin-hematoxylin.
compound,measurement,setting,value
"CC/C=C\C/C=C\C/C=C\C/C=C\C/C=C\C/C=C\CC(SCC)C(=O)OCC (stereo not drawn) [PRB-7, α-tioethyl docosahexaenoic acid ethyl ester]",intracellular concentration of DHA in liver tissue from animals given the PRB,[1],significantly higher level
same,release of luciferase from transfected cells,PPARγ,significantly higher release of luciferase
same,plasma insulin,[2]; FIG. 15,some effects on the insulin concentration
same,AUC blood glucose compared to the baseline values,"[2]; FIG. 16, 1.5% of PRB-2",some effect but not to the same extent
same,"fat liver (liver steatosis), histology",[3],low degree of fat liver
